Laboratory results published in US4244947A, “Carba decapeptide derivatives of [TYR^6 ]-somatostatin” (Ayerst McKenna and Harrison Inc., priority 1979, dated 1981).

Tests used:
Format in all cases: in vivo, rat
[1] = test system: arginine stimulated insulin secretion; experiment: arginine stimulated insulin secretion in anaesthetized fasted rats (plasma IRI); details: for ΔIRI, mean incremental change of IRI from basal: infused with arginine, 30 min, mean ± SEM
Procedure: (§1) The in vivo activity of the peptide of formula I is established by subjecting the peptide of formula I, in which X is (CH2)2 as a representative peptide of this invention, to the following standard test procedures.
(§2) Male Sprague Dawley rats (200±10 gm) body weight are used throughout these studies. They are maintained on an ad libitum diet of Purina Lab Chow and tap water until 24 hr before the studies are carried out. In the 24 hr period prior to use, the animals are fasted, but have unlimited access to tap water. All studies are conducted on sodium pentobarbital, sold under the trademark Nembutal, (Abbott Labs, Montreal), 60 mg/kg, ip, anaesthetized rats.
(§3) In studies where both insulin and glucagon secretion are investigated, arginine (arginine-HCl in 0.9% aqueous sodium chloride, pH 7.4, 200 mg/100 gm rat, Nutritional Biochemicals, Cleveland) is infused into an exposed jugular vein (2.0 ml/30 min).
(§4) The peptide of formula I or somatostatin at various concentrations is infused simultaneously with the arginine or glucose stimulus, with the aid of a butterfly infusion set (23 guage) into the test animals. The effect of the vehicle on the release of the hormones is determined by infusing the saline diluent into selected rats.
(§5) The blood samples are discharged into chilled (4° C.) glass test tubes, containing aprotinin, sold under the trademark Trasylol, (Boehringer Ingelheim, Montreal), 500 KIU/ml whole blood, and plasma samples were collected after centrifugation (4° C., 3000 rpm for 30 min). The plasma samples were stored at -20° until assayed for immuno reactive glucagon (IRG) using antiserum 30 K and for immuno reactive insulin (IRI) by the methods described by W. Lippmann and M. Kobric, Horm. Metab. Res., 10, 280 (1978).
(§6) All results are expressed as the mean ±SEM of the response. Insulin and glucagon responses obtained in the arginine treated groups are derived by subtracting the basal hormone level from the level at 30 min, and are expressed in Tables I, II and III as ΔIRG (pg/ml) and ΔIRI/(μU/ml), for glucagon and insulin, respectively. Insulin results obtained from the glucose treated animals are in absolute hormone level at the termination of the infusion.
(§7) Wilcoxon's two sample test for unpaired observations, as described in "Statistical Methods", G. W. Snedecor and W. G. Cochran, ed., sixth edition, the Iowa State University Press, Ames, Iowa, 1973, pp 130 and 131, is used to determine the significance of the peptide+arginine or peptide+glucose versus the responses due to arginine or glucose alone. In selected instances, parallel dose-response line assay by analysis of variance, as described in "Statistical Method in Biological Assay", D. J. Finney, ed., second edition, Hafner Publishing Company, New York, 1964, is used to determine the relative potency of the 2 peptides in the bioassays. A p≤0.05 is deemed to be significant.

[2] = test system: arginine stimulated glucagon secretion; experiment: arginine stimulated glucagon secretion in anaesthetized fasted rats (plasma IRG); details: for ΔIRG, mean incremental change of plasma IRG from level at 0 min to level at 30 min: mean ± SEM
Procedure: as §1, §2, §3, §4, §5, §6, §7

[3] = test system: glucose stimulated insulin secretion; experiment: glucose stimulated insulin secretion in anaesthetized fasted rats (plasma IRI); details: for IRI/ml, level observed at 30 min: absolute level, mean ± SEM
Procedure: as §1, §2
In studies where only insulin secretion is stimulated, glucose in 0.9% aqueous sodium chloride (British Drug House, Poole, England) is infused into an exposed jugular vein (100 mg/100 gm, in a volume of 2.0 ml for 30 min).
as §4, §5, §6, §7

## C[C@H](N)C(=O)NCC(=O)N[C@H]1CSSC[C@@H](C(=O)O)NC(=O)[C@H](CO)NC(=O)[C@H]([C@@H](C)O)NC(=O)[C@H](Cc2ccccc2)NC(=O)[C@H]([C@@H](C)O)NC(=O)[C@H](CCCCN)NC(=O)[C@H](Cc2c[nH]c3ccccc23)NC(=O)[C@H](Cc2ccccc2)NC(=O)[C@H](Cc2ccccc2)NC(=O)[C@H](CC(N)=O)NC(=O)[C@H](CCCCN)NC1=O [somatostatin]
[1]; Study A, 0.3 μg peptide/100 gm body weight rat
  ΔIRI, mean incremental change of IRI from basal: 73.8 ± 18.5 μU/ml
[1]; Study A, 1.0 μg peptide/100 gm body weight rat
  ΔIRI, mean incremental change of IRI from basal: 43.0 ± 22.6 μU/ml
[1]; Study A, 3.0 μg peptide/100 gm body weight rat
  ΔIRI, mean incremental change of IRI from basal: 40.0 ± 6.6 μU/ml
[1]; Study A, 30.0 μg peptide/100 gm body weight rat
  ΔIRI, mean incremental change of IRI from basal: 23.2 ± 12.5 μU/ml
[1]; Study B, 0.03 μg peptide/100 gm body weight rat
  ΔIRI, mean incremental change of IRI from basal: 88.3 ± 9.1 μU/ml
[1]; Study B, 0.3 μg peptide/100 gm body weight rat
  ΔIRI, mean incremental change of IRI from basal: 76.8 ± 5.2 μU/ml
[1]; Study B, 3.0 μg peptide/100 gm body weight rat
  ΔIRI, mean incremental change of IRI from basal: 32.2 ± 3.5 μU/ml
[1]; Study B, 30.0 μg peptide/100 gm body weight rat
  ΔIRI, mean incremental change of IRI from basal: 35.5 ± 7.8 μU/ml
[1]; Study C, 10.0 μg peptide/100 gm body weight rat
  ΔIRI, mean incremental change of IRI from basal: 52.8 ± 9.3 μU/ml
[1]; Study C, 100.0 μg peptide/100 gm body weight rat
  ΔIRI, mean incremental change of IRI from basal: 25.5 ± 8.1 μU/ml
[1]; arginine stimulated, summary of Table I
  suppression of IRI, comparison of effective dose: suppresses IRI at a lower dose than does the peptide of formula I in which X is (CH2)2
[2]; Study A, 0.3 μg peptide/100 gm rat infused for 30 min with arginine
  ΔIRG, mean incremental change of plasma IRG from level at 0 min to level at 30 min: 157.2 ± 35.9 pg/mL
[2]; Study A, 1.0 μg peptide/100 gm rat infused for 30 min with arginine
  ΔIRG, mean incremental change of plasma IRG from level at 0 min to level at 30 min: 72.7 ± 19.0 pg/mL
[2]; Study A, 3.0 μg peptide/100 gm rat infused for 30 min with arginine
  ΔIRG, mean incremental change of plasma IRG from level at 0 min to level at 30 min: 102.5 ± 25.8 pg/mL
[2]; Study A, 30.0 μg peptide/100 gm rat infused for 30 min with arginine
  ΔIRG, mean incremental change of plasma IRG from level at 0 min to level at 30 min: 90.2 ± 38.4 pg/mL
[2]; Study B, 0.03 μg peptide/100 gm rat infused for 30 min with arginine
  ΔIRG, mean incremental change of plasma IRG from level at 0 min to level at 30 min: 211.0 ± 23.1 pg/mL
[2]; Study B, 0.3 μg peptide/100 gm rat infused for 30 min with arginine
  ΔIRG, mean incremental change of plasma IRG from level at 0 min to level at 30 min: 149.2 ± 29.9 pg/mL
[2]; Study B, 3.0 μg peptide/100 gm rat infused for 30 min with arginine
  ΔIRG, mean incremental change of plasma IRG from level at 0 min to level at 30 min: 69.3 ± 22.2 pg/mL
[2]; Study B, 30.0 μg peptide/100 gm rat infused for 30 min with arginine
  ΔIRG, mean incremental change of plasma IRG from level at 0 min to level at 30 min: 69.7 ± 8.4 pg/mL
[2]; arginine stimulated, summary of Table II
  suppression of IRG secretion, comparison: suppresses the IRG secretion about equally
[3]; Study A, 10 μg peptide/100 gm rat infused for 30 min with glucose
  IRI/ml, level observed at 30 min: 27.2 ± 4.7 μU/ml
[3]; Study A, 100 μg peptide/100 gm rat infused for 30 min with glucose
  IRI/ml, level observed at 30 min: 12.3 ± 3.9 μU/ml
[3]; Study B, 10 μg peptide/100 gm rat infused for 30 min with glucose
  IRI/ml, level observed at 30 min: 40.3 ± 7.7 μU/ml
[3]; Study B, 30 μg peptide/100 gm rat infused for 30 min with glucose
  IRI/ml, level observed at 30 min: 17.0 ± 7.5 μU/ml
[3]; Study B, 100 μg peptide/100 gm rat infused for 30 min with glucose
  IRI/ml, level observed at 30 min: 6.2 ± 1.9 μU/ml
[3]; glucose stimulated, summary of Table III
  relative potency in suppressing IRI secretion: significantly more potent than the peptide of formula I in which X is (CH2)2
